The text below walks through data of US8846947B2, “Benzimidazoles and related analogs as sirtuin modulators” (GlaxoSmithKline LLC, priority 2008, dated 2014).

The target of the assay is T1, SIRT1 (Homo sapiens, UniProt Q96EB6).
T1 sequence (Q96EB6 1-747): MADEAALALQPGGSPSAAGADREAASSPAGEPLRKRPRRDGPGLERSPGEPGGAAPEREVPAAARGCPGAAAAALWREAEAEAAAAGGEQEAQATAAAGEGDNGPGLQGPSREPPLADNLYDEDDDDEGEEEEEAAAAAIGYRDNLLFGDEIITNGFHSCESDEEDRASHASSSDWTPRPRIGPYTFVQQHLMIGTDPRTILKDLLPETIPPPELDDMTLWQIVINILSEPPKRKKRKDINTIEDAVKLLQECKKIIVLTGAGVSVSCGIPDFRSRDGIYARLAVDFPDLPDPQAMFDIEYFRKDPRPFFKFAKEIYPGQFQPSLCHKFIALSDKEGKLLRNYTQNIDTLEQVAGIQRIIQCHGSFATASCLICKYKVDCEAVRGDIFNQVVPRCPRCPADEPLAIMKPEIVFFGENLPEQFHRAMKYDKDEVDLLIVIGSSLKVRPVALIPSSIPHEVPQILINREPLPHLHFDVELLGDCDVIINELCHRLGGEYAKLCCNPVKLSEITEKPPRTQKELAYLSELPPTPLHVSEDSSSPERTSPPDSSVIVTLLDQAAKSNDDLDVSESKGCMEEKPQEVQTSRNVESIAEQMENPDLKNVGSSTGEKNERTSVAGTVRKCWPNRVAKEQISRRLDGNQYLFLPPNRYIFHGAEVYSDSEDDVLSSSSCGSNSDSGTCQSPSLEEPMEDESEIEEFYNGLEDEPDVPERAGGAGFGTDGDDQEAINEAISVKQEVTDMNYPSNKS
The assay is described as follows: Mass spectrometry based SIRT1 deacetylase activation assay (acetylated p53-derived peptide substrate). It counts as biochemical. The settings on record: 0.5 μM peptide substrate, 120 μM βNAD+, 10 nM SIRT1, 25 minutes at 25° C.
With `CC1(C)CN(c2ccc(-c3nc4c(C(=O)Nc5ccccn5)cccc4[nH]3)c(C(F)(F)F)c2)CCO1` [Compound 707], the EC1.5 result is given as “A (EC1.5<1.0 uM)” and the “Fold Act. (percent maximum fold activation)” value is “A (Fold activation >200%)”.

Consider `CC1(C)CN(c2ccc(C(F)(F)F)c(-c3nc4c(C(=O)Nc5nccs5)cccc4[nH]3)c2)CCO1` [Compound 708], for which the EC1.5 entry is “A (EC1.5<1.0 uM)” and the “Fold Act. (percent maximum fold activation)” value is given as “A (Fold activation >200%)”.

On to `CC1(C)CN(c2ccc(C(F)(F)F)c(-c3nc4c(C(=O)Nc5ccccn5)cccc4[nH]3)c2)CCO1` [Compound 709], for which the EC1.5 result is recorded as “A (EC1.5<1.0 uM)” and the “Fold Act. (percent maximum fold activation)” value is listed as “A (Fold activation >200%)”.

With `COCCN1CCN(c2cccc(-c3nc4c(C(=O)Nc5nccs5)cccc4[nH]3)c2)CC1` [Compound 710], the EC1.5 entry is on record as “A (EC1.5<1.0 uM)” and the “Fold Act. (percent maximum fold activation)” value was “A (Fold activation >200%)”.

As to `CC1(C)CN(CCOc2ccccc2-c2nc3c(C(=O)Nc4nccs4)cccc3[nH]2)CCO1` [Compound 711], the EC1.5 entry is on record as “A (EC1.5<1.0 uM)” and the “Fold Act. (percent maximum fold activation)” value is on record as “A (Fold activation >200%)”.

As for `CC1(C)CN(CCOc2ccccc2-c2nc3c(C(=O)Nc4ccccn4)cccc3[nH]2)CCO1` [Compound 712], the EC1.5 result was “B (EC1.5 1-25 uM)” and the “Fold Act. (percent maximum fold activation)” value is given as “B (Fold Activation <200%)”.

In the case of `O=C(Nc1cccc(OC[C@H](O)CO)c1)c1cncc2[nH]c(-c3ccccc3C(F)F)nc12` [Compound 713], the EC1.5 entry is “A (EC1.5<1.0 uM)” and the “Fold Act. (percent maximum fold activation)” value was “A (Fold activation >200%)”.

With `O=C(Nc1cccc(OC[C@@H](O)CO)c1)c1cncc2[nH]c(-c3ccccc3C(F)F)nc12` [Compound 714], the EC1.5 result was “A (EC1.5<1.0 uM)” and the “Fold Act. (percent maximum fold activation)” value is listed as “A (Fold activation >200%)”.

For the compound `O=C(Nc1cccc(OC[C@H](O)CO)c1)c1cncc2[nH]c(-c3ccc(Cl)cc3C(F)F)nc12` [Compound 715], the EC1.5 entry is given as “A (EC1.5<1.0 uM)” and the “Fold Act. (percent maximum fold activation)” value is given as “A (Fold activation >200%)”.

For `O=C(Nc1cccc(OC[C@@H](O)CO)c1)c1cncc2[nH]c(-c3ccc(Cl)cc3C(F)F)nc12` [Compound 716], the EC1.5 result is given as “A (EC1.5<1.0 uM)” and the “Fold Act. (percent maximum fold activation)” value was “A (Fold activation >200%)”.

As for `O=C(Nc1cccc(OC[C@H](O)CO)c1)c1cccc2[nH]c(-c3ccc(F)cc3C(F)F)nc12` [Compound 717], the EC1.5 result is “A (EC1.5<1.0 uM)” and the “Fold Act. (percent maximum fold activation)” value is recorded as “A (Fold activation >200%)”.

For the compound `O=C(Nc1cccc(OC[C@@H](O)CO)c1)c1cccc2[nH]c(-c3ccc(F)cc3C(F)F)nc12` [Compound 718], the EC1.5 result is “A (EC1.5<1.0 uM)” and the “Fold Act. (percent maximum fold activation)” value is “A (Fold activation >200%)”.

For the compound `O=C(Nc1cccc(OC[C@H](O)CO)c1)c1cccc2[nH]c(-c3cc(F)ccc3C(F)F)nc12` [Compound 719], the EC1.5 entry is “A (EC1.5<1.0 uM)” and the “Fold Act. (percent maximum fold activation)” value is “A (Fold activation >200%)”.

Take `O=C(Nc1cccc(OC[C@@H](O)CO)c1)c1cccc2[nH]c(-c3cc(F)ccc3C(F)F)nc12` [Compound 720]: the EC1.5 entry is listed as “A (EC1.5<1.0 uM)” and the “Fold Act. (percent maximum fold activation)” value was “A (Fold activation >200%)”.

Turning to `O=C(Nc1cccc(OC[C@H](O)CO)c1)c1cccc2[nH]c(-c3ccccc3C(F)F)nc12` [Compound 721], the EC1.5 entry was “A (EC1.5<1.0 uM)” and the “Fold Act. (percent maximum fold activation)” value is given as “A (Fold activation >200%)”.

`O=C(Nc1nccs1)c1cccc2[nH]c(-c3ccc(OCCN4CCOCC4)cc3C(F)F)nc12` [Compound 722]: the EC1.5 result is “A (EC1.5<1.0 uM)” and the “Fold Act. (percent maximum fold activation)” value is on record as “A (Fold activation >200%)”.

In the case of `O=C(Nc1ccccn1)c1cccc2[nH]c(-c3ccc(OCCN4CCOCC4)cc3C(F)F)nc12` [Compound 723, 2-(2-(difluoromethyl)-4-(2-morpholinoethoxy)phenyl)-N-(pyridin-2-yl)-1H-benzo[d]imidazole-7-carboxamide], the EC1.5 result is “A (EC1.5<1.0 uM)” and the “Fold Act. (percent maximum fold activation)” value is on record as “A (Fold activation >200%)”.

For the compound `O=C(Nc1cccnc1)c1cccc2[nH]c(-c3ccc(OCCN4CCOCC4)cc3C(F)F)nc12` [Compound 724], the EC1.5 result was “A (EC1.5<1.0 uM)” and the “Fold Act. (percent maximum fold activation)” value is given as “A (Fold activation >200%)”.

For `O=C(Nc1cccc(OC[C@@H](O)CO)c1)c1cccc2[nH]c(-c3ccccc3C(F)(F)F)nc12` [Compound 725, (S)-N-(3-(2,3-dihydroxypropoxy)phenyl)-2-(2-(trifluoromethyl)phenyl)-1H-benzo[d]imidazole-4-carboxamide], the EC1.5 entry was “A (EC1.5<1.0 uM)” and the “Fold Act. (percent maximum fold activation)” value is on record as “A (Fold activation >200%)”.

Consider `O=C(Nc1ccccc1OCC(O)CO)c1cccc2[nH]c(-c3ccc(Cl)cc3C(F)(F)F)nc12` (stereo not drawn) [Compound 726], for which the EC1.5 entry is on record as “B (EC1.5 1-25 uM)” and the “Fold Act. (percent maximum fold activation)” value is reported as “A (Fold activation >200%)”.

For `O=C(Nc1ccccc1OCC(O)CO)c1cccc2[nH]c(-c3ccc(F)cc3C(F)(F)F)nc12` (stereo not drawn) [Compound 727], the EC1.5 result was “B (EC1.5 1-25 uM)” and the “Fold Act. (percent maximum fold activation)” value is “A (Fold activation >200%)”.

Consider `O=C(Nc1ccc(CN2CCNCC2)nc1)c1cccc2[nH]c(-c3ccccc3C(F)(F)F)nc12` [Compound 728], for which the EC1.5 entry is “A (EC1.5<1.0 uM)” and the “Fold Act. (percent maximum fold activation)” value is “A (Fold activation >200%)”.

As for `O=C(Nc1ccccc1OCC(O)CO)c1cccc2[nH]c(-c3ccccc3C(F)(F)F)nc12` (stereo not drawn) [Compound 729], the EC1.5 result is “B (EC1.5 1-25 uM)” and the “Fold Act. (percent maximum fold activation)” value is listed as “A (Fold activation >200%)”.

Regarding `O=C(Nc1ccccc1OCC(O)CO)c1cccc2[nH]c(-c3cc(F)ccc3C(F)(F)F)nc12` (stereo not drawn) [Compound 730], the EC1.5 result is “B (EC1.5 1-25 uM)” and the “Fold Act. (percent maximum fold activation)” value was “A (Fold activation >200%)”.

For the compound `O=C(Nc1nccs1)c1cccc2[nH]c(-c3ccc(N4CC[C@H](F)C4)cc3C(F)F)nc12` [Compound 731], the EC1.5 result is on record as “A (EC1.5<1.0 uM)” and the “Fold Act. (percent maximum fold activation)” value is listed as “A (Fold activation >200%)”.

For `Cc1cnc(NC(=O)c2cccc3[nH]c(-c4ccc(N5CC[C@H](F)C5)cc4C(F)F)nc23)s1` [Compound 732], the EC1.5 entry is “A (EC1.5<1.0 uM)” and the “Fold Act. (percent maximum fold activation)” value was “A (Fold activation >200%)”.

Take `O=C(Nc1ccccn1)c1cccc2[nH]c(-c3ccc(N4CC[C@H](F)C4)cc3C(F)F)nc12` [Compound 733]: the EC1.5 result is “A (EC1.5<1.0 uM)” and the “Fold Act. (percent maximum fold activation)” value is listed as “A (Fold activation >200%)”.

Consider `O=C(Nc1nccs1)c1cc(N2CCOCC2)cc2[nH]c(-c3ccccc3C(F)F)nc12` [Compound 734], for which the EC1.5 result is recorded as “A (EC1.5<1.0 uM)” and the “Fold Act. (percent maximum fold activation)” value was “A (Fold activation >200%)”.

Regarding `O=C(Nc1cccnc1)c1cc(N2CCOCC2)cc2[nH]c(-c3ccccc3C(F)F)nc12` [Compound 735], the EC1.5 result is “A (EC1.5<1.0 uM)” and the “Fold Act. (percent maximum fold activation)” value was “A (Fold activation >200%)”.

Take `O=C(Nc1ccccn1)c1cc(N2CCOCC2)cc2[nH]c(-c3ccccc3C(F)F)nc12` [Compound 736]: the EC1.5 entry is on record as “A (EC1.5<1.0 uM)” and the “Fold Act. (percent maximum fold activation)” value was “A (Fold activation >200%)”.

For the compound `O=C(Nc1cccnn1)c1cc(N2CCOCC2)cc2[nH]c(-c3ccccc3C(F)F)nc12` [Compound 737], the EC1.5 entry is recorded as “A (EC1.5<1.0 uM)” and the “Fold Act. (percent maximum fold activation)” value is recorded as “A (Fold activation >200%)”.

As to `O=C(Nc1cccc(OC[C@@H](O)CO)c1)c1cncc2[nH]c(-c3ccc(Cl)cc3C(F)(F)F)nc12` [Compound 738], the EC1.5 result is on record as “A (EC1.5<1.0 uM)” and the “Fold Act. (percent maximum fold activation)” value is listed as “A (Fold activation >200%)”.

In the case of `O=C(Nc1cccc(OC[C@H](O)CO)c1)c1cncc2[nH]c(-c3ccc(Cl)cc3C(F)(F)F)nc12` [Compound 739], the EC1.5 result is “A (EC1.5<1.0 uM)” and the “Fold Act. (percent maximum fold activation)” value is on record as “A (Fold activation >200%)”.

Regarding `O=C(Nc1cccc(OCC(O)CO)c1)c1cccc2[nH]c(-c3ccc(Cl)cc3C(F)(F)F)nc12` (stereo not drawn) [Compound 740], the EC1.5 entry is listed as “A (EC1.5<1.0 uM)” and the “Fold Act. (percent maximum fold activation)” value was “A (Fold activation >200%)”.

For `O=C(Nc1cccc(OCC(O)CO)c1)c1cccc2[nH]c(-c3cc(F)ccc3C(F)(F)F)nc12` (stereo not drawn) [Compound 741], the EC1.5 result is given as “A (EC1.5<1.0 uM)” and the “Fold Act. (percent maximum fold activation)” value is “A (Fold activation >200%)”.

As to `O=C(Nc1nccs1)c1cccc2[nH]c(-c3ccc(OC[C@H](O)CO)cc3C(F)(F)F)nc12` [Compound 742], the EC1.5 result is “A (EC1.5<1.0 uM)” and the “Fold Act. (percent maximum fold activation)” value is given as “A (Fold activation >200%)”.
